From PubChem BioAssay (NCI)
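Dose response: 5 concentrations. Exposure: 48 h. Format: 96-well plates. Endpoint: linear interpolation; highest concentration if not reached. TGI: total growth inhibition.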

Columns and labels:
Assay in all cases: NCI tumour cell line growth inhibition, 48 h
[1] = test system: UACC-257 melanoma
[2] = test system: DLD-1 colon
[3] = test system: SK-MEL-2 melanoma
[4] = test system: SF-295 CNS
[5] = test system: OVCAR-5 ovarian
[6] = test system: UACC-62 melanoma
[7] = test system: MCF7 breast
[8] = test system: SW-620 colon
[9] = test system: CCRF-CEM leukemia
[10] = test system: SN12C renal
[11] = test system: MOLT-4 leukemia
[12] = test system: HL-60(TB) leukemia
[13] = test system: U251 CNS
[14] = test system: SK-OV-3 ovarian
[15] = test system: HOP-62 NSCLC
[16] = test system: SN12K1 renal
[17] = test system: UO-31 renal
[18] = test system: HCC-2998 colon
[19] = test system: DMS 273 small cell lung
[20] = test system: NCI-H226 lung
[21] = test system: HCT-15 colon
[22] = test system: SK-MEL-28 melanoma
[23] = test system: M19-MEL melanoma
[24] = test system: A549 NSCLC
[25] = test system: P388 leukemia
[26] = test system: HOP-18 NSCLC
[27] = test system: LOX IMVI melanoma
[28] = test system: OVCAR-3 ovarian
[29] = test system: HT29 colon
[30] = test system: OVCAR-4 ovarian
[31] = test system: IGROV1 ovarian
[32] = test system: HCT-116 colon
[33] = test system: NCI-H460 lung
[34] = test system: SF-268 CNS
[35] = test system: NCI-H522 lung
[36] = test system: DMS 114 small cell lung
[37] = test system: SNB-78 CNS
[38] = test system: A498 renal
[39] = test system: HOP-92 NSCLC
[40] = test system: RXF 393 renal
[41] = test system: K-562 leukemia
[42] = test system: COLO 205 colon
[43] = test system: KM12 colon
[44] = test system: NCI-H23 lung
[45] = test system: SNB-19 CNS
[46] = test system: KM20L2 colon
[47] = test system: EKVX NSCLC
[48] = test system: SNB-75 CNS
[49] = test system: NCI/ADR-RES ovarian
[50] = test system: MALME-3M melanoma
[51] = test system: SF-539 CNS
[52] = test system: XF 498 CNS
[53] = test system: RPMI-8226 leukemia
[54] = test system: SK-MEL-5 melanoma
[55] = test system: OVCAR-8 ovarian
[56] = test system: M14 melanoma
[57] = test system: 786-0 renal
[58] = test system: CAKI-1 renal
[59] = test system: RXF-631 renal
[60] = test system: SR leukemia
[61] = test system: ACHN renal
[62] = test system: TK-10 renal
[63] = test system: LXFL 529 NSCLC

Compound `CSCC[C@@H]1C(=O)N(C)[C@H](C(C)(C)C)N1C(=O)c1ccccc1` has a TGI [1] greater than 100 µM, a TGI [2] greater than 100 µM and a TGI [3] greater than 100 µM. For the same compound, the TGI [4] was greater than 100 µM, the TGI [5] was greater than 100 µM and the TGI [6] was greater than 100 µM. The TGI [7] was greater than 100 µM, the TGI [8] was greater than 100 µM and the TGI [9] was greater than 100 µM. The TGI [10] was greater than 100 µM, the TGI [11] was greater than 100 µM and the TGI [12] was greater than 100 µM. For the same compound, the TGI [13] was greater than 100 µM, the TGI [14] was greater than 100 µM and the TGI [15] was greater than 100 µM. For the same compound, the TGI [16] was greater than 100 µM, the TGI [17] was greater than 100 µM and the TGI [18] was greater than 100 µM. The TGI [19] was greater than 100 µM, the TGI [20] was greater than 100 µM and the TGI [21] was greater than 100 µM. For the same compound, the TGI [22] was greater than 100 µM, the TGI [23] was greater than 100 µM and the TGI [24] was greater than 100 µM. It also gave a TGI [25] greater than 100 µM, a TGI [26] greater than 100 µM and a TGI [27] greater than 100 µM. The TGI [28] was greater than 100 µM, the TGI [29] was greater than 100 µM and the TGI [30] was greater than 100 µM. For the same compound, the TGI [31] was greater than 100 µM, the TGI [32] was greater than 100 µM and the TGI [33] was greater than 100 µM. For the same compound, the TGI [34] was greater than 100 µM, the TGI [35] was greater than 100 µM and the TGI [36] was greater than 100 µM. It also gave a TGI [37] greater than 100 µM, a TGI [38] greater than 100 µM and a TGI [39] greater than 100 µM. It also gave a TGI [40] greater than 100 µM, a TGI [41] greater than 100 µM and a TGI [42] greater than 100 µM. For the same compound, the TGI [43] was greater than 100 µM, the TGI [44] was greater than 100 µM and the TGI [45] was greater than 100 µM. For the same compound, the TGI [46] was greater than 100 µM, the TGI [47] was greater than 100 µM and the TGI [48] was greater than 100 µM. The TGI [49] was greater than 100 µM, the TGI [50] was greater than 100 µM and the TGI [51] was greater than 100 µM. The TGI [52] was greater than 100 µM, the TGI [53] was greater than 100 µM and the TGI [54] was greater than 100 µM. It also gave a TGI [55] greater than 100 µM.

In the case of `COc1cc(-c2nccc3cc(OC)c(OC)cc23)ccc1O`, the TGI [1] is reported as greater than 100 µM, the TGI [2] is reported as greater than 100 µM and the TGI [56] is reported as greater than 100 µM. For the same compound, the TGI [3] was greater than 100 µM, the TGI [4] was greater than 100 µM and the TGI [5] was greater than 100 µM. It also gave a TGI [6] greater than 100 µM, a TGI [8] greater than 100 µM and a TGI [9] greater than 100 µM. The TGI [57] was greater than 100 µM, the TGI [58] was greater than 100 µM and the TGI [10] was greater than 100 µM. It also gave a TGI [11] of 91.8 µM, a TGI [59] greater than 100 µM and a TGI [12] of 67.4 µM. It also gave a TGI [13] greater than 100 µM, a TGI [60] greater than 100 µM and a TGI [14] greater than 100 µM. For the same compound, the TGI [15] was greater than 100 µM, the TGI [17] was greater than 100 µM and the TGI [18] was greater than 100 µM. For the same compound, the TGI [19] was greater than 100 µM, the TGI [20] was greater than 100 µM and the TGI [61] was greater than 100 µM. The TGI [21] was 96.1 µM, the TGI [22] was greater than 100 µM and the TGI [23] was greater than 100 µM. The TGI [24] was greater than 100 µM, the TGI [26] was greater than 100 µM and the TGI [27] was greater than 100 µM. The TGI [28] was greater than 100 µM, the TGI [29] was greater than 100 µM and the TGI [30] was greater than 100 µM. The TGI [31] was greater than 100 µM, the TGI [32] was greater than 100 µM and the TGI [33] was greater than 100 µM. The TGI [35] was greater than 100 µM, the TGI [37] was greater than 100 µM and the TGI [39] was greater than 100 µM. The TGI [41] was greater than 100 µM, the TGI [42] was greater than 100 µM and the TGI [43] was greater than 100 µM. For the same compound, the TGI [44] was greater than 100 µM, the TGI [62] was greater than 100 µM and the TGI [45] was greater than 100 µM. For the same compound, the TGI [63] was greater than 100 µM, the TGI [46] was greater than 100 µM and the TGI [47] was greater than 100 µM. It also gave a TGI [48] greater than 100 µM, a TGI [50] greater than 100 µM and a TGI [51] greater than 100 µM. For the same compound, the TGI [52] was 78.6 µM, the TGI [53] was greater than 100 µM and the TGI [54] was greater than 100 µM. It also gave a TGI [55] greater than 100 µM.
